From the supplement of paper PMC13207355

Experiments:
Conditions in all cases: exposure time: 72 h
[1] = system: E57 (patient-derived glioblastoma stem cells of mesenchymal subtype); assay: surviving fraction (nuclei count normalised to DMSO); higher = more cells surviving (less toxic)
[2] = system: E21 (patient-derived glioblastoma stem cells of mesenchymal subtype); assay: as above
[3] = system: FT3469 (normal neural stem cell line); assay: as above
[4] = system: E13 (patient-derived glioblastoma stem cells of classical subtype); assay: as above
[5] = system: E28 (patient-derived glioblastoma stem cells of classical subtype); assay: as above
[6] = system: E31 (patient-derived glioblastoma stem cells of proneural subtype); assay: as above
[7] = system: E34 (patient-derived glioblastoma stem cells of proneural subtype); assay: as above
[8] = system: E57; assay: phenotypic distance (Euclidean, principal components) from DMSO controls (arbitrary units); higher = stronger morphological change
[9] = system: E21; assay: as above
[10] = system: FT3469; assay: as above
[11] = system: E13; assay: as above
[12] = system: E28; assay: as above
[13] = system: E31; assay: as above
[14] = system: E34; assay: as above
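Throughout, for phenotypic distance (Euclidean, principal components) from DMSO controls: cell Painting imaging in 384-well plates, CellProfiler features reduced to at least 20 principal components, Euclidean distance versus same-plate DMSO vehicle wells (0.1% v/v), median over six images per well.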
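Throughout, for surviving fraction (nuclei count normalised to DMSO): nuclei counted by high-content imaging of Hoechst-stained cells in laminin-coated 384-well plates, relative to 0.1% DMSO vehicle wells, with staurosporine as cell-death control.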

O=C1CC[C@@H](C(=O)N2CSC[C@H]2C(=O)O)N1 [Pidotimod]
Conditions	phenotypic distance	surviving fraction
[1], 4.1 nM	–	1.07
[1], 12.3 nM	–	0.938
[1], 37 nM	–	1.02
[1], 111.1 nM	–	1.11
[1], 333.3 nM	–	0.978
[1], 1000 nM	–	1
[1], 3000 nM	–	1.03
[2], 4.1 nM	–	0.96
[2], 12.3 nM	–	1
[2], 37 nM	–	0.984
[2], 111.1 nM	–	1.08
[2], 333.3 nM	–	0.991
[2], 1000 nM	–	0.96
[2], 3000 nM	–	0.947
[3], 4.1 nM	–	0.972
[3], 12.3 nM	–	1.13
[3], 37 nM	–	0.987
[3], 111.1 nM	–	1.06
[3], 333.3 nM	–	1.01
[3], 1000 nM	–	1.01
[3], 3000 nM	–	0.933
[4], 4.1 nM	–	0.925
[4], 12.3 nM	–	1.01
[4], 37 nM	–	0.97
[4], 111.1 nM	–	1
[4], 333.3 nM	–	1.06
[4], 1000 nM	–	1.01
[4], 3000 nM	–	0.913
[5], 4.1 nM	–	1.2
[5], 12.3 nM	–	1.02
[5], 37 nM	–	0.964
[5], 111.1 nM	–	1.11
[5], 333.3 nM	–	1.04
[5], 1000 nM	–	1.16
[5], 3000 nM	–	0.954
[6], 4.1 nM	–	1.08
[6], 12.3 nM	–	1.02
[6], 37 nM	–	1.01
[6], 111.1 nM	–	1.11
[6], 333.3 nM	–	0.994
[6], 1000 nM	–	1.17
[6], 3000 nM	–	0.845
[7], 4.1 nM	–	0.98
[7], 12.3 nM	–	0.951
[7], 37 nM	–	0.786
[7], 111.1 nM	–	1.09
[7], 333.3 nM	–	0.996
[7], 1000 nM	–	1.04
[7], 3000 nM	–	1.04
[8], 4.1 nM	0.799	–
[8], 12.3 nM	1.03	–
[8], 37 nM	0.543	–
[8], 111.1 nM	0.877	–
[8], 333.3 nM	0.527	–
[8], 1000 nM	0.924	–
[8], 3000 nM	0.651	–
[9], 4.1 nM	0.591	–
[9], 12.3 nM	0.496	–
[9], 37 nM	0.601	–
[9], 111.1 nM	0.694	–
[9], 333.3 nM	0.815	–
[9], 1000 nM	0.785	–
[9], 3000 nM	0.805	–
[10], 4.1 nM	0.84	–
[10], 12.3 nM	0.912	–
[10], 37 nM	0.359	–
[10], 111.1 nM	0.641	–
[10], 333.3 nM	0.526	–
[10], 1000 nM	0.625	–
[10], 3000 nM	0.629	–
[11], 4.1 nM	0.802	–
[11], 12.3 nM	0.46	–
[11], 37 nM	0.672	–
[11], 111.1 nM	0.456	–
[11], 333.3 nM	3.33	–
[11], 1000 nM	0.449	–
[11], 3000 nM	0.493	–
[12], 4.1 nM	0.887	–
[12], 12.3 nM	1.4	–
[12], 37 nM	0.401	–
[12], 111.1 nM	0.59	–
[12], 333.3 nM	0.551	–
[12], 1000 nM	0.647	–
[12], 3000 nM	0.608	–
[13], 4.1 nM	0.386	–
[13], 12.3 nM	0.576	–
[13], 37 nM	0.777	–
[13], 111.1 nM	0.985	–
[13], 333.3 nM	0.492	–
[13], 1000 nM	0.921	–
[13], 3000 nM	0.594	–
[14], 4.1 nM	0.643	–
[14], 12.3 nM	0.613	–
[14], 37 nM	0.723	–
[14], 111.1 nM	0.721	–
[14], 333.3 nM	0.963	–
[14], 1000 nM	0.89	–
[14], 3000 nM	0.949	–

COc1cc(/C=C/C(=O)N2CCC=CC2=O)cc(OC)c1OC [Piperlongumine]
Conditions	phenotypic distance	surviving fraction
[1], 4.1 nM	–	1.02
[1], 12.3 nM	–	0.96
[1], 37 nM	–	1.03
[1], 111.1 nM	–	1.03
[1], 333.3 nM	–	1.06
[1], 1000 nM	–	1
[1], 3000 nM	–	0.285
[2], 4.1 nM	–	1.01
[2], 12.3 nM	–	0.979
[2], 37 nM	–	0.997
[2], 111.1 nM	–	0.997
[2], 333.3 nM	–	0.908
[2], 1000 nM	–	0.609
[2], 3000 nM	–	0.104
[3], 4.1 nM	–	1.05
[3], 12.3 nM	–	0.946
[3], 37 nM	–	0.901
[3], 111.1 nM	–	0.983
[3], 333.3 nM	–	0.881
[3], 1000 nM	–	0.866
[3], 3000 nM	–	0.7
[4], 4.1 nM	–	0.958
[4], 12.3 nM	–	0.883
[4], 37 nM	–	1.05
[4], 111.1 nM	–	0.818
[4], 333.3 nM	–	0.823
[4], 1000 nM	–	0.88
[4], 3000 nM	–	0.767
[5], 4.1 nM	–	1.02
[5], 12.3 nM	–	1.1
[5], 37 nM	–	1.13
[5], 111.1 nM	–	0.988
[5], 333.3 nM	–	1.03
[5], 1000 nM	–	0.538
[5], 3000 nM	–	0.256
[6], 4.1 nM	–	0.957
[6], 12.3 nM	–	1.09
[6], 37 nM	–	1.19
[6], 111.1 nM	–	1.12
[6], 333.3 nM	–	0.938
[6], 1000 nM	–	0.684
[6], 3000 nM	–	0.00892
[7], 4.1 nM	–	0.873
[7], 12.3 nM	–	0.984
[7], 37 nM	–	1.11
[7], 111.1 nM	–	1.04
[7], 333.3 nM	–	1.06
[7], 1000 nM	–	0.863
[7], 3000 nM	–	0.559
[8], 4.1 nM	1.56	–
[8], 12.3 nM	0.849	–
[8], 37 nM	0.56	–
[8], 111.1 nM	0.314	–
[8], 333.3 nM	0.518	–
[8], 1000 nM	1.93	–
[8], 3000 nM	6.93	–
[9], 4.1 nM	1.09	–
[9], 12.3 nM	0.626	–
[9], 37 nM	0.701	–
[9], 111.1 nM	0.313	–
[9], 333.3 nM	0.682	–
[9], 1000 nM	3.07	–
[9], 3000 nM	9.28	–
[10], 4.1 nM	0.686	–
[10], 12.3 nM	0.732	–
[10], 37 nM	0.828	–
[10], 111.1 nM	0.586	–
[10], 333.3 nM	1.07	–
[10], 1000 nM	1.12	–
[10], 3000 nM	3.88	–
[11], 4.1 nM	0.433	–
[11], 12.3 nM	0.675	–
[11], 37 nM	0.516	–
[11], 111.1 nM	2.59	–
[11], 333.3 nM	0.883	–
[11], 1000 nM	0.903	–
[11], 3000 nM	1.87	–
[12], 4.1 nM	0.727	–
[12], 12.3 nM	1.04	–
[12], 37 nM	0.697	–
[12], 111.1 nM	0.848	–
[12], 333.3 nM	0.74	–
[12], 1000 nM	2.27	–
[12], 3000 nM	5.12	–
[13], 4.1 nM	1.19	–
[13], 12.3 nM	0.591	–
[13], 37 nM	0.723	–
[13], 111.1 nM	0.471	–
[13], 333.3 nM	1.14	–
[13], 1000 nM	1.51	–
[13], 3000 nM	10.8	–
[14], 4.1 nM	1.26	–
[14], 12.3 nM	0.821	–
[14], 37 nM	1.16	–
[14], 111.1 nM	0.677	–
[14], 333.3 nM	0.524	–
[14], 1000 nM	0.889	–
[14], 3000 nM	1.82	–

O=C(CCBr)N1CCN(C(=O)CCBr)CC1 [Pipobroman]
Conditions	phenotypic distance	surviving fraction
[1], 4.1 nM	–	1.05
[1], 12.3 nM	–	1.02
[1], 37 nM	–	1.06
[1], 111.1 nM	–	1.07
[1], 333.3 nM	–	1.07
[1], 1000 nM	–	0.958
[1], 3000 nM	–	0.816
[2], 4.1 nM	–	1.13
[2], 12.3 nM	–	0.912
[2], 37 nM	–	1.01
[2], 111.1 nM	–	0.966
[2], 333.3 nM	–	1.05
[2], 1000 nM	–	0.836
[2], 3000 nM	–	0.811
[3], 4.1 nM	–	1.12
[3], 12.3 nM	–	1.08
[3], 37 nM	–	0.946
[3], 111.1 nM	–	1
[3], 333.3 nM	–	1.05
[3], 1000 nM	–	0.961
[3], 3000 nM	–	0.86
[4], 4.1 nM	–	0.929
[4], 12.3 nM	–	0.984
[4], 37 nM	–	1.02
[4], 111.1 nM	–	0.921
[4], 333.3 nM	–	0.977
[4], 1000 nM	–	0.982
[4], 3000 nM	–	0.98
[5], 4.1 nM	–	0.961
[5], 12.3 nM	–	1.13
[5], 37 nM	–	0.966
[5], 111.1 nM	–	0.954
[5], 333.3 nM	–	0.979
[5], 1000 nM	–	0.931
[5], 3000 nM	–	0.713
[6], 4.1 nM	–	0.99
[6], 12.3 nM	–	0.958
[6], 37 nM	–	0.924
[6], 111.1 nM	–	0.976
[6], 333.3 nM	–	0.859
[6], 1000 nM	–	0.759
[6], 3000 nM	–	0.716
[7], 4.1 nM	–	1.03
[7], 12.3 nM	–	0.865
[7], 37 nM	–	1.08
[7], 111.1 nM	–	1.06
[7], 333.3 nM	–	1.01
[7], 1000 nM	–	0.892
[7], 3000 nM	–	1.1
[8], 4.1 nM	0.542	–
[8], 12.3 nM	0.868	–
[8], 37 nM	0.587	–
[8], 111.1 nM	0.428	–
[8], 333.3 nM	0.404	–
[8], 1000 nM	0.464	–
[8], 3000 nM	1.79	–
[9], 4.1 nM	0.8	–
[9], 12.3 nM	0.777	–
[9], 37 nM	0.578	–
[9], 111.1 nM	0.528	–
[9], 333.3 nM	0.76	–
[9], 1000 nM	0.889	–
[9], 3000 nM	2.2	–
[10], 4.1 nM	0.541	–
[10], 12.3 nM	0.755	–
[10], 37 nM	0.771	–
[10], 111.1 nM	0.734	–
[10], 333.3 nM	0.615	–
[10], 1000 nM	1.02	–
[10], 3000 nM	1.65	–
[11], 4.1 nM	0.472	–
[11], 12.3 nM	0.7	–
[11], 37 nM	0.541	–
[11], 111.1 nM	0.407	–
[11], 333.3 nM	0.764	–
[11], 1000 nM	0.638	–
[11], 3000 nM	0.745	–
[12], 4.1 nM	0.503	–
[12], 12.3 nM	0.763	–
[12], 37 nM	0.907	–
[12], 111.1 nM	0.719	–
[12], 333.3 nM	0.82	–
[12], 1000 nM	0.794	–
[12], 3000 nM	1.56	–
[13], 4.1 nM	0.424	–
[13], 12.3 nM	0.596	–
[13], 37 nM	0.531	–
[13], 111.1 nM	0.433	–
[13], 333.3 nM	0.574	–
[13], 1000 nM	1.19	–
[13], 3000 nM	1.45	–
[14], 4.1 nM	0.724	–
[14], 12.3 nM	0.45	–
[14], 37 nM	0.596	–
[14], 111.1 nM	0.698	–
[14], 333.3 nM	0.871	–
[14], 1000 nM	0.646	–
[14], 3000 nM	0.982	–
